Data: PubChem BioAssay (NCI)
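Tested at 5 concentrations; 48 h exposure; 96-well plates; endpoints linearly interpolated, else capped at highest concentration. GI50 = concentration required for 50% inhibition of growth. TGI denotes the concentration required for complete inhibition of growth.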

Experiments:
Assay in all cases: NCI anticancer screen, dose series, 48 h
HOP-92 NSCLC = tested on: HOP-92 NSCLC
SNB-19 CNS = tested on: SNB-19 CNS
NCI-H522 lung = tested on: NCI-H522 lung
IGROV1 ovarian = tested on: IGROV1 ovarian
TK-10 renal = tested on: TK-10 renal
MCF7 breast = tested on: MCF7 breast
SK-MEL-2 melanoma = tested on: SK-MEL-2 melanoma
786-0 renal = tested on: 786-0 renal
DLD-1 colon = tested on: DLD-1 colon
M19-MEL melanoma = tested on: M19-MEL melanoma

| SMILES | GI50 (HOP-92 NSCLC) | TGI (HOP-92 NSCLC) | GI50 (SNB-19 CNS) | TGI (SNB-19 CNS) | GI50 (NCI-H522 lung) | TGI (NCI-H522 lung) | GI50 (IGROV1 ovarian) | TGI (IGROV1 ovarian) | TGI (TK-10 renal) | GI50 (MCF7 breast) | TGI (MCF7 breast) | GI50 (SK-MEL-2 melanoma) | TGI (SK-MEL-2 melanoma) | GI50 (786-0 renal) | TGI (786-0 renal) | GI50 (TK-10 renal) | TGI (DLD-1 colon) | TGI (M19-MEL melanoma) |
| --- | --- | --- | --- | --- | --- | --- | --- | --- | --- | --- | --- | --- | --- | --- | --- | --- | --- | --- |
| CCOC(=O)c1cc2c(n1Cc1cc(OC)cc(OC)c1)-c1oncc1CCC2 | 0.0858 µM | 7.37 µM | 0.844 µM | > 100 µM | 0.0194 µM | 0.0682 µM | 0.0732 µM | > 100 µM | > 100 µM | 0.0401 µM | > 100 µM | 0.038 µM | > 100 µM | 0.104 µM | > 100 µM | – | – | – |
| CC1=C(C(=O)Nc2ccc3[nH]ncc3c2)C(c2ccc(F)cc2)NC(=O)N1 (stereo not given) | 0.425 µM | > 25 µM | > 25 µM | > 25 µM | > 18.2 µM | > 25 µM | > 25 µM | > 25 µM | > 25 µM | > 25 µM | > 25 µM | > 25 µM | > 25 µM | > 25 µM | > 25 µM | > 25 µM | – | – |
| Cc1ccccc1S(=O)(=O)N1[C@H](c2ccc(Cl)cc2)C(C(=O)N[C@@H](Cc2ccccc2)C(N)=O)=C[C@@H]1C(C)(C)C | 7.24 µM | 17.4 µM | 6.07 µM | 17.3 µM | 7.92 µM | 15.6 µM | 9.57 µM | 23.1 µM | 19.1 µM | 2.17 µM | 9.67 µM | 9.59 µM | 17.6 µM | 9.46 µM | 23.9 µM | 9.43 µM | – | – |
| CCN(CC)CCOc1ccc(Nc2ncc3cc(-c4c(Cl)cccc4Cl)c(=O)n(CCOC)c3n2)cc1 | 0.0163 µM | 0.322 µM | 0.458 µM | 6.01 µM | 0.134 µM | 1.8 µM | 0.0138 µM | 0.0983 µM | 0.832 µM | 1.57 µM | 8.4 µM | 0.493 µM | 7.6 µM | 0.0324 µM | 5.28 µM | 0.0785 µM | – | – |
| CNC(=O)c1c(NC(=O)c2cccc(C(F)(F)F)c2)sc2c1CCC(=O)C2 | 0.383 µM | 2.58 µM | 0.356 µM | > 100 µM | 0.075 µM | 0.549 µM | 0.339 µM | 2.26 µM | > 40.8 µM | 0.283 µM | 2.84 µM | 0.874 µM | 3.5 µM | 0.447 µM | > 36.8 µM | 0.469 µM | – | – |
| O=C1CCC2CCc3cccc4oc1c2c34 (stereo not given) | – | 98.6 µM | – | > 100 µM | – | – | – | > 100 µM | > 100 µM | – | – | – | – | – | > 100 µM | – | > 100 µM | > 100 µM |
| O=C(O)CNS(=O)(=O)c1ccc(NC(=O)c2ccc(F)cc2)cc1 | – | > 100 µM | – | > 100 µM | – | – | – | > 100 µM | > 100 µM | – | – | – | > 100 µM | – | > 100 µM | – | > 100 µM | > 100 µM |
| Cc1[nH]c(C(=O)Nc2ccc(C(=O)N3CCNCC3)cc2OC(C)C)c(Cl)c1Cl | 1.62 µM | 6.07 µM | 1.89 µM | 3.95 µM | 1.72 µM | 3.42 µM | 1.58 µM | 3.49 µM | 3.32 µM | 1.8 µM | 3.59 µM | 1.97 µM | 3.79 µM | 1.63 µM | 3.18 µM | 1.8 µM | – | – |
